Measurements published in patent publication US8440717B2, “Hair growth regulating agent” (Kao Corporation, priority 2008, dated 2013).

System: porcine hair follicles
Assay: Hair growth suppressing effect by organ culture method using porcine hair follicles
Assay type: cell-based, pig
Settings: for activity at 3e-05 % / activity at 0.003 %: 120 h, day 5 after start of culture with sample-containing medium; for activity at 3e-05 %: concentration 0.00003%; for activity at 0.003 %: concentration 0.003%; for activity at 0.01 %: concentration 0.01%
Procedure: The skin of a pork pig was cut into pieces of appropriate size, and excess fat was removed. For disinfection, the skin pieces were immersed in a Hibitane solution under sterile conditions for 10 to 20 minutes. The thus-disinfected skin pieces were washed several times with D-PBS.
Subsequently, hair follicles were isolated from the thus-treated skin pieces under a stereomicroscope by means of tweezers and a scalpel (FEATHER No. 10), and the hair follicles were placed on William's Medium E (Gibco cat. No. 12551-032) supplemented with penicillin/streptomycin (Gibco cat. No. 15140-122) solution by 10.
The isolated hair follicles were transferred to a 24-well culture plate (one follicle/well) together with the aforementioned culture medium (400 μL), and cultured in an incubator (37° C., 5% CO2) for two days.
Subsequently, compounds synthesized in Example 1 (compounds 2, 6, 7, and 9 to 13) were diluted with the aforementioned culture medium, to thereby prepare sample-containing media. Each of the thus-prepared sample-containing media was used for replacement. Similarly, N,N-dimethylglycine methyl ester (DMG) and 1,8-diaminooctane (1,8-DAO) were diluted with the aforementioned culture medium, to thereby prepare sample-containing media. Each of the thus-prepared sample-containing media was also used for replacement.
The medium for culture of hair follicles was replaced with each of the sample-containing media, and thereafter, replaced with a sample-containing medium every one or two days. At days five or six after the start of culture with the sample-containing medium, the elongation of hair follicles (i.e., elongation of hair) was measured and compared with that of the control in which medium was replaced with only the non-sample-containing medium. The elongation of hair follicles (i.e., elongation of hair) in the control medium was taken as 100%.
The sample concentration of each sample-containing medium was set within a range that the sample is completely dissolved in the medium, and at non-cytotoxic levels which cause no reduction of cell viability with 24-hour addition of the sample to epidermal cells.

[1] = Sus scrofa, read-out: Percent growth of hair follicles (control = 100%)
[2] = Sus scrofa, 144 h, day 6 after start of culture with sample-containing medium, read-out: Percent growth of hair follicles (control = 100%)

Structure (SMILES): NCCCCCCCCN [1,8-DAO, 1,8-diaminooctane, reference compound]
- activity at 0.03 % (Sus scrofa, 144 h, day 6 after start of culture with sample-containing medium, concentration 0.03%, read-out: Percent growth of hair follicles (control = 100%)): 87.9%

Structure (SMILES): CCCCCCCCCCCCNC(=O)CN(C)C [Compound 2, 2-Dimethylamino-N-Dodecyl-Acetamide]
- activity at 3e-05 % [1]: 108%

Structure (SMILES): CCNC(=O)CN(C)C [Compound 6, 2-Dimethylamino-N-Ethyl-Acetamide]
- activity at 0.003 % [1]: 91.6%

Structure (SMILES): CCCCCCCCCCCCNC(=O)C[N+](C)(C)C.[Cl-] [Compound 7, Dodecylcarbamoylmethyltrimethylammonium Chloride]
- activity at 3e-05 % [1]: 42.4%
- suppressive effect on growth of hair follicles (i.e., hair growth), rank among tested compounds (comparison across Tables 1 and 2, compound 7 at 0.000030): highest suppressive effect

Structure (SMILES): CN(C)CC(=O)NCCOCCOCCNC(=O)CN(C)C [Compound 9, 2-Dimethylamino-N-(2-{2-[2-(2-Dimethylamino-Acetylamino)-Ethoxy]-Ethoxy}-Ethyl)-Acetamide]
- activity at 0.01 % [2]: 62.4%

Structure (SMILES): CN(C)CC(=O)NCCCCCCCCNC(=O)CN(C)C [Compound 10, 2-Dimethylamino-N-[8-(2-Dimethylamino-Acetylamino)-Octyl]-Acetamide]
- activity at 0.01 % [2]: 54.7%

Structure (SMILES): CN(C)CC(=O)NCCOCCOCCOCCNC(=O)CN(C)C [Compound 11, 2-Dimethylamino-N-[2-(2-{2-[2-(2-Dimethylamino-Acetylamino)-Ethoxy]-Ethoxy}-Ethoxy)-Ethyl]-Acetamide]
- activity at 0.003 % [1]: 97%

Structure (SMILES): CN(C)CC(=O)NCCCCCCCCCCCCNC(=O)CN(C)C [Compound 12, 2-Dimethylamino-N-[12-(2-Dimethylamino-Acetylamino)-Dodecyl]-Acetamide]
- activity at 0.003 % [1]: 48.7%

Structure (SMILES): CN(C)CC(=O)NCCCCNC(=O)CN(C)C [Compound 13, 2-Dimethylamino-N-[4-(2-Dimethylamino-Acetamino)-Butyl]-Acetamide]
- activity at 0.003 % [1]: 79.1%
